In patent publication US5650415A, “Quinoline compounds” (Sugen, Inc., priority 1995, dated 1997) one finds IC50 data, which are given here for seven molecules.

As a reminder, the IC50 is the concentration needed to halve the response being measured. High values mean weaker potency, low ones greater potency.

The target of the assay is T1, EGFR (Homo sapiens, UniProt P00533).
T1 construct: expressed in transfected cells; host or cells: NIH3T3 clone C7 (EGFR/C7)
T1 sequence (P00533 25-1210): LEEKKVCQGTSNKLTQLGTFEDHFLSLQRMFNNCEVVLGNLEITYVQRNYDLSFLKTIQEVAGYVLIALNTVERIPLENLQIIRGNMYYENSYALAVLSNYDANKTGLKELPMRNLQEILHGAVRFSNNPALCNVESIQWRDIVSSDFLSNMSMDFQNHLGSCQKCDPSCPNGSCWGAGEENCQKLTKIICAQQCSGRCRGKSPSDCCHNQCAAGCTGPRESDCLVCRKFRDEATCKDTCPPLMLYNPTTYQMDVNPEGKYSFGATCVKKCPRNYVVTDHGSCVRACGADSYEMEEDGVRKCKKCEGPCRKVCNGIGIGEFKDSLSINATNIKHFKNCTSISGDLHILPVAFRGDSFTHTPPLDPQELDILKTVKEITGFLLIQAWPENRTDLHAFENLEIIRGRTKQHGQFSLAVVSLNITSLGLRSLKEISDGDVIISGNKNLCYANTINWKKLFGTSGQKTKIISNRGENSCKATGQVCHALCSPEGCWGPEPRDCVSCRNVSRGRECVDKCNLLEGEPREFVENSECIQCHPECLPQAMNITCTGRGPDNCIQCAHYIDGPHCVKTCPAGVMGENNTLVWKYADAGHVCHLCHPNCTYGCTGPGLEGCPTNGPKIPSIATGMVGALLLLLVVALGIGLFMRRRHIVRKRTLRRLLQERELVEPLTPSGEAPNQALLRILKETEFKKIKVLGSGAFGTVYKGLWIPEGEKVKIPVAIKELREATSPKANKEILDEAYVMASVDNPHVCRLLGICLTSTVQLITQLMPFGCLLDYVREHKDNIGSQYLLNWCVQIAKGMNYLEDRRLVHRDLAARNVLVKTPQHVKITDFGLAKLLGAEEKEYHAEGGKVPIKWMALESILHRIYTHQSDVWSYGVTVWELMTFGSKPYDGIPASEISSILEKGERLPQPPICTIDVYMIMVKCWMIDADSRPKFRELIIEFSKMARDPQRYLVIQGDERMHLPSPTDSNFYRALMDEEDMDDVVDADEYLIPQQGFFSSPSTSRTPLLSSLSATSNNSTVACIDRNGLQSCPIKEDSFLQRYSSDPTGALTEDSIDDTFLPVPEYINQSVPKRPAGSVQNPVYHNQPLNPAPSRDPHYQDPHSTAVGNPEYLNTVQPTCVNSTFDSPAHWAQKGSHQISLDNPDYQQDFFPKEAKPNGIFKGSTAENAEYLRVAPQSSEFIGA
The assay can be described thus: EGFR Whole Cell Kinase Assay (ELISA). Particulars: NIH3T3 clone C7 over-expressing human EGF receptor. It is filed as cell-based. An excerpt:
The following examples illustrates the ability of the exemplary compounds to inhibit receptor tyrosine kinases, such as HER2 and/or EGFR. The following target cells were used for cellular kinase assays: NIH3T3 clone C7 (Honegger et al., supra) engineered to over-express human EGF receptor; NIH3T3 cells engineered to over-express a chimeric receptor containing the EGFR extracellular domain and the HER2 intracellular kinase domain; the human mammary carcinoma line BT474 (ATCC HTB2) expressing HER2; and the human glioblastoma line U1242 that expresses PDGFR-beta. Growth assays were carried out using human mammary epithelial SKBR3 (ATCC HTB30) cells (SKBR3 cells over-express HER2), SKOV3 (AT(D(D HTB77) human ovarian cancer cell line (SKOV3 cells also over-express HER2), A431 cells (A431 cells over-express EGFR) MCF7 human breast carcinoma cells, MCF7 cells overexpressing the HER2 kinase (MCF7-HER2), NIH3T3 cells, and NIH3T3 cells overexpressing the HER2 kinase (3T3-HER2.
EGFR Whole Cell Kinase Assay
EGFR kinase activity (EGFR-3T3 assay) in whole cells was measured as described below:
A. Coat ELISA plates (Corning, 96 well, Cat. #25805-96) with 05-101 antibody at 0.5 μg per well in PBS, 150 μl final volume/well, and store overnight at 4.sunburst. C. Coated plates are good for up to 10 days when stored at 4.sunburst. C.
B. On day of use, remove coating buffer and replace with blocking buffer (5% Carnation Instant NonFat Dry Milk in PBS). Incubate the plate, shaking, at room temperature (about 23.sunburst. C. to 25.sunburst. C.) for 30 minutes. Just prior to use, remove blocking buffer and wash plate 4 times with TBST buffer.
A. EGFR/C7 cell line (Honegger, et al., supra) can be used for this assay.
B. Choose dishes having 80-90% confluence for the experiment. Trypsinize cells and stop reaction by adding 10% CS DMEM medium. Suspend cells in DMEM medium (10% CS DMEM medium) and centrifuge once at 1000 rpm, and once at room temperature for 5 minutes.
C. Resuspend cells in seeding medium (DMEM, 0.5% bovine serum), and count the cells using trypan blue. Viability above 90% is acceptable. Seed cells in DMEM medium (0.5% bovine serum) at a density of 10,000 cells per well, 100 μl per well, in a 96 well microtiter plate. Incubate seeded cells in 5% CO2 at 37.sunburst. C. for about 40 hours.
A. Check seeded cells for contamination using an inverted microscope. Dilute drug stock (10 mg/ml in DMSO) 1:10 in DMEM medium, then transfer 5 μl to a test well for a final drug dilution of 1:200 and a final DMSO concentration of […]. Control wells receive DMSO alone. Incubate in 5% CO2 at 37° C. for one hour.
B. Prepare EGF ligand: dilute stock EGF in DMEM so that upon transfer of 10 μl dilute EGF (1:12 dilution), 25 nM final concentration is attained.
C. Prepare fresh HNTG* sufficient for 100 μl per well; and place on ice.
D. After two hours incubation with drug, add prepared EGF ligand to cells, 10 μl per well, to yield a final concentration of 25 nM. Control wells receive DMEM alone. Incubate, shaking, at room temperature, for 5 minutes.
E. Remove drug, EGF, and DMEM. Wash cells twice with PBS. Transfer HNTG* to cells, 100 μl per well. Place on ice for 5 minutes. Meanwhile, remove blocking buffer from other ELISA plate and wash with TBST as described above.
F. With a pipette tip securely fitted to a micropipettor, scrape cells from plate and homogenize cell material by repeatedly aspirating and dispensing the HNTG* lysis buffer. Transfer lysate to a coated, blocked, and washed ELISA plate. Incubate shaking at room temperature for one hour.
G. Remove lysate and wash 4 times with TBST. Transfer freshly diluted anti-Ptyr antibody to ELISA plate at 100 μl per well. Incubate shaking at room temperature for 30 minutes in the presence of the anti-Ptyr antiserum (1:3000 dilution in TBST).
H. Remove the anti-Ptyr antibody and wash 4 times with TBST. […]
(In general: An ELISA detects its analyte on a solid surface through an enzyme-linked reagent.)
On to `CCOC(=O)c1cnc2c(F)cc(F)cc2c1Sc1ccc(Cl)cc1` [Compound A730, 4-(4-Chlorophenylmercapto)-6,8-difluoro-3-ethoxycarbonylquinoline], for which the IC50 is > 50 µM.

In the case of `CCOC(=O)c1cnc2c(F)ccc(F)c2c1Sc1ccc(Cl)cc1` [Compound A732, 4-(4-Chlorophenylmercapto)-5,8-difluoro-3-ethoxycarbonylquinoline], the half-maximal inhibitory concentration (IC50) is > 100 µM.

In the case of `CCOC(=O)c1cnc2cc(Cl)c(F)cc2c1Sc1ccc(Cl)cc1` [Compound A731, 7-Chloro-4-(4-chlorophenylmercapto)-6-fluoro-3-ethoxycarbonylquinoline], the IC50 is > 50 µM.

With `CCOC(=O)c1cnc2c(F)ccc(F)c2c1Sc1cccc(C(F)(F)F)c1` [Compound A713, 3-Ethoxycarbonyl-5,8-difluoro-4-(3-trifluoromethylphenylmercapto)quinoline], the half-inhibitory concentration (IC50) is > 100 µM.

In the case of `CCOC(=O)c1cnc2ccc(C(F)(F)F)cc2c1Nc1cccc(Br)c1` [Compound A716, 4-(3-Bromophenylamino)-3-ethoxycarbonyl-6-trifluoromethylquinoline], the IC50 is > 100 µM.

For `CCOC(=O)c1cnc2ccc(C(F)(F)F)cc2c1Nc1ccc(C(F)(F)F)cc1` [Compound A722, 3-Ethoxycarbonyl-4-(4-trifluoromethylphenylamino)-6-trifluoromethylquinoline], the concentration for half-maximal inhibition (IC50) was > 100 µM.

Consider `CCOC(=O)c1cnc2ccc(C(F)(F)F)cc2c1Nc1cccc(C(F)(F)F)c1` [Compound A721, 3-Ethoxycarbonyl-4-(3-trifluoromethylphenylamino)-6-trifluoromethylquinoline], for which the half-maximal inhibitory concentration (IC50) is > 100 µM.
